Results: the supplement of paper PMC11061612

Tests used:
Test in all cases: Bliss excess, mean over the matrix (fraction); higher = more synergy
ES7 (Ewing's Sarcoma) = test system: ES7 (Ewing's Sarcoma)
Procedure, shortened: (§1)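 Cell lines in DMEM/F12 or RPMI with 10% FBS were plated in 1536-well plates, held 24 hours at 37°C, 5% CO2, then given two-drug dose matrices for 72 hours (DMSO typically 0.2%). Viability was read by CellTiter-Glo 2.0 luminescence and scaled as inhibition from 0 (vehicle wells) to 1 (blank wells). Combination Emax is the second-highest inhibition in the matrix; Bliss excess is observed combination effect minus expected EA + EB − EA·EB, EA and EB being single-agent effects.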

J82 (Bladder Carcinoma) = test system: J82 (Bladder Carcinoma)
Procedure, shortened: as §1

[1] = test system: OCI-AML2 (Acute Myeloid Leukemia)
Procedure, shortened: as §1

[2] = test system: KARPAS-1106P (B-Cell Non-Hodgkin's Lymphoma)
Procedure, shortened: as §1

CAL-78 (Chondrosarcoma) = test system: CAL-78 (Chondrosarcoma)
Procedure, shortened: as §1

[3] = test system: NCI-H1299 (Non-Small Cell Lung Carcinoma)
Procedure, shortened: as §1

[4] = test system: TGBC24TKB (Biliary Tract Carcinoma)
Procedure, shortened: as §1

[5] = test system: SUIT-2 (Pancreatic Carcinoma)
Procedure, shortened: as §1

[6] = test system: NCI-H1781 (Lung Adenocarcinoma)
Procedure, shortened: as §1

[7] = test system: DMS-273 (Small Cell Lung Carcinoma)
Procedure, shortened: as §1

IGR-1 (Melanoma) = test system: IGR-1 (Melanoma)
Procedure, shortened: as §1

[8] = test system: NCI-H1793 (Lung Adenocarcinoma)
Procedure, shortened: as §1

[9] = test system: SW756 (Cervical Carcinoma)
Procedure, shortened: as §1

[10] = test system: SW1783 (Low Grade Glioma)
Procedure, shortened: as §1

[11] = test system: KATOIII (Gastric Carcinoma)
Procedure, shortened: as §1

[12] = test system: C3A (Hepatocellular Carcinoma)
Procedure, shortened: as §1

[13] = test system: HT-29 (Colorectal Carcinoma)
Procedure, shortened: as §1

[14] = test system: EM-2 (Chronic Myelogenous Leukemia)
Procedure, shortened: as §1

[15] = test system: MDA-MB-157 (Breast Carcinoma)
Procedure, shortened: as §1

[16] = test system: MFH-ino (Other Solid Carcinomas)
Procedure, shortened: as §1

Row | Compound | Bliss excess (ES7 (Ewing's Sarcoma)) | Bliss excess (J82 (Bladder Carcinoma)) | Bliss excess [1] | Bliss excess [2] | Bliss excess (CAL-78 (Chondrosarcoma)) | Bliss excess [3] | Bliss excess [4] | Bliss excess [5] | Bliss excess [6] | Bliss excess [7] | Bliss excess (IGR-1 (Melanoma)) | Bliss excess [8] | Bliss excess [9] | Bliss excess [10] | Bliss excess [11] | Bliss excess [12] | Bliss excess [13] | Bliss excess [14] | Bliss excess [15] | Bliss excess [16]
1 | Cn1cnc2c(F)c(Nc3ccc(Br)cc3Cl)c(C(=O)NOCCO)cc21 [Selumetinib] + C[C@@H]1COCCN1C2=NC(=NC(=C2)C3(CC3)[S@](=N)(=O)C)C4=C5C=CNC5=NC=C4 [AZD6738] (first compound max 10 µM, 7x7, partner max 10 µM) | -0.0585 | 0.0262 | 0.0141 | -0.0007 | -0.0911 | 0.0454 | 0.0704 | 0.0298 | -0.0397 | -0.0676 | 0.0257 | -0.0402 | 0.0323 | -0.103 | -0.0433 | 0.0471 | -0.019 | 0.0264 | -0.0203 | 0.0029
2 | CCN(CCO)CCCOc1ccc2c(Nc3cc(CC(=O)Nc4cccc(F)c4)[nH]n3)ncnc2c1 [AZD2811] + C=CCn1c(=O)c2cnc(Nc3ccc(N4CCN(C)CC4)cc3)nc2n1-c1cccc(C(C)(C)O)n1 [AZD1775] (first compound max 1 µM, partner max 1 µM) | -0.0468 | 0.0001 | 0.0077 | -0.0241 | 0.0636 | -0.024 | -0.0717 | -0.017 | 0.0795 | 0.0064 | -0.0438 | -0.0064 | -0.01 | -0.073 | -0.0459 | -0.0279 | -0.0446 | -0.0184 | 0.0291 | -0.0399
3 | NC1(C(=O)N[C@@H](CCO)c2ccc(Cl)cc2)CCN(c2ncnc3[nH]ccc23)CC1 [Capivasertib] + Cn1cnc2c(F)c(Nc3ccc(Br)cc3Cl)c(C(=O)NOCCO)cc21 [Selumetinib] (first compound max 10 µM, 7x7, partner max 10 µM) | 0.0372 | -0.021 | 0.0547 | 0.0759 | -0.0369 | 0.0153 | 0.132 | -0.0181 | 0.105 | -0.003 | 0.103 | -0.0292 | -0.0177 | -0.0097 | 0.0291 | -0.0208 | -0.0119 | 0.0766 | -0.014 | -0.0205
4 | COc1cccc(OCCCN)c1-c1cc(Nc2cnc(C#N)cn2)n[nH]1 [Prexasertib] + CCc1c2c(nc3ccc(O)cc13)-c1cc3c(c(=O)n1C2)COC(=O)[C@]3(O)CC [SN-38] (first compound max 1 µM, 7x7, partner max 0.3 µM) | -0.012 | -0.0177 | -0.0094 | -0.124 | -0.0348 | -0.0161 | 0.0191 | -0.0582 | -0.0105 | 0.0356 | 0.0316 | -0.0209 | -0.0542 | -0.0739 | -0.0168 | -0.112 | -0.0022 | -0.0352 | 0.0027 | -0.0321
5 | Cc1nc(Nc2ncc(C(=O)Nc3c(C)cccc3Cl)s2)cc(N2CCN(CCO)CC2)n1 [Dasatinib] + CC(=O)Nc1cccc(-n2c(=O)n(C3CC3)c(=O)c3c(Nc4ccc(I)cc4F)n(C)c(=O)c(C)c32)c1 [Trametinib] (first compound max 2 µM, 7x7, partner max 1 µM) | -0.0112 | -0.0068 | 0.0363 | 0.122 | -0.108 | 0.035 | 0.106 | 0.0197 | -0.0355 | -0.0922 | -0.0448 | -0.0406 | -0.0659 | -0.0712 | -0.0164 | -0.0059 | 0.0984 | -0.0935 | -0.0026 | -0.0838
6 | CC1(C)CCC(CN2CCN(c3ccc(C(=O)NS(=O)(=O)c4ccc(NCC5CCOCC5)c([N+](=O)[O-])c4)c(Oc4cnc5[nH]ccc5c4)c3)CC2)=C(c2ccc(Cl)cc2)C1 [Venetoclax] + Cc1cc2ncnn2cc1Nc1ncc2c(n1)n(C1CCOCC1)c(=O)n2C [AZD7648] (first compound max 1 µM, 7x7, partner max 10 µM) | -0.0735 | -0.0202 | 0.0273 | -0.0672 | 0.0236 | -0.0352 | 0.0423 | -0.0271 | -0.0274 | -0.0147 | -0.0287 | -0.042 | 0.0031 | -0.0395 | -0.0076 | -0.0588 | 0.0077 | -0.0135 | -0.0154 | -0.0328
7 | Cc1cc2ncnn2cc1Nc1ncc2c(n1)n(C1CCOCC1)c(=O)n2C [AZD7648] + CN(C)CCCOc1ccc(-c2ccc3ncc4c(c3c2)n(C2CCOCC2)c(=O)n4C)cn1 [AZD0156] (first compound max 10 µM, 7x7, partner max 1 µM) | 0.0271 | -0.0131 | -0.022 | 0.0083 | -0.0091 | 0.0177 | 0.009 | -0.0125 | 0.0151 | 0.05 | -0.0223 | 0.0044 | 0.0076 | -0.0078 | -0.0204 | -0.032 | 0.0289 | 0.0183 | 0.0406 | -0.0299
8 | CC(=O)c1c(C)c2cnc(Nc3ccc(N4CCNCC4)cn3)nc2n(C2CCCC2)c1=O [Palbociclib] + Cc1c2c(nn1C)CSCc1cc(n(C)n1)CSc1cc(c3ccccc3c1)OCCCc1c(C(=O)O)n(C)c3c-2c(Cl)ccc13 [AZD5991] (first compound max 10 µM, 7x7, partner max 1 µM) | -0.005 | -0.0174 | 0.004 | -0.0645 | -0.0395 | 0.0018 | 0.0597 | -0.014 | -0.0608 | -0.0565 | 0.0047 | -0.0299 | -0.0749 | -0.0248 | 0.0505 | 0.0027 | 0.0058 | -0.021 | -0.0408 | -0.042
9 | COc1nnc2ccc(N3CCC(c4ccc(OCCN5CCN(C)C(=O)[C@H]5C)cc4)CC3)nn12 [AZD5153] + Cc1c2c(nn1C)CSCc1cc(n(C)n1)CSc1cc(c3ccccc3c1)OCCCc1c(C(=O)O)n(C)c3c-2c(Cl)ccc13 [AZD5991] (first compound max 1 µM, 7x7, partner max 1 µM) | 0.0052 | 0.0439 | -0.0185 | 0.0005 | -0.0263 | -0.0313 | 0.0447 | -0.0318 | 0.0028 | -0.1 | 0.0094 | -0.0484 | -0.0238 | -0.0024 | -0.0765 | -0.0262 | -0.0227 | 0.0004 | 0.0297 | -0.0333
10 | NC1(C(=O)N[C@@H](CCO)c2ccc(Cl)cc2)CCN(c2ncnc3[nH]ccc23)CC1 [Capivasertib] + CC(=O)c1c(C)c2cnc(Nc3ccc(N4CCNCC4)cn3)nc2n(C2CCCC2)c1=O [Palbociclib] (first compound max 10 µM, 7x7, partner max 10 µM) | 0.0092 | -0.0134 | 0.0134 | -0.0168 | -0.0424 | 0.0662 | -0.0216 | -0.0047 | -0.0326 | -0.0309 | -0.0028 | -0.0287 | -0.0499 | -0.0263 | -0.0242 | 0.0164 | 0.0086 | -0.0552 | 0.0439 | -0.0353
11 | C=CCn1c(=O)c2cnc(Nc3ccc(N4CCN(C)CC4)cc3)nc2n1-c1cccc(C(C)(C)O)n1 [AZD1775] + C[C@@H]1COCCN1C2=NC(=NC(=C2)C3(CC3)[S@](=N)(=O)C)C4=C5C=CNC5=NC=C4 [AZD6738] (first compound max 1 µM, partner max 10 µM) | 0.0753 | 0.0305 | 0.0349 | 0.0072 | 0.0171 | -0.0268 | -0.0018 | -0.0287 | -0.0334 | 0.0645 | 0.0632 | -0.0289 | -0.0278 | -0.0432 | -0.0139 | -0.0104 | -0.0089 | 0.0362 | 0.0217 | -0.0909
12 | COc1nnc2ccc(N3CCC(c4ccc(OCCN5CCN(C)C(=O)[C@H]5C)cc4)CC3)nn12 [AZD5153] + C=CCn1c(=O)c2cnc(Nc3ccc(N4CCN(C)CC4)cc3)nc2n1-c1cccc(C(C)(C)O)n1 [AZD1775] (first compound max 1 µM, partner max 1 µM) | -0.0364 | 0.0514 | -0.0293 | -0.0966 | -0.0766 | -0.0278 | -0.0367 | 0.0152 | -0.0744 | -0.0377 | 0.0203 | -0.0548 | -0.05 | -0.0531 | -0.148 | 0.0547 | -0.0532 | -0.0217 | -0.0313 | -0.0837
13 | Cc1cc2ncnn2cc1Nc1ncc2c(n1)n(C1CCOCC1)c(=O)n2C [AZD7648] + C[C@@H]1COCCN1C2=NC(=NC(=C2)C3(CC3)[S@](=N)(=O)C)C4=C5C=CNC5=NC=C4 [AZD6738] (first compound max 10 µM, 7x7, partner max 10 µM) | 0.074 | -0.0122 | 0.0045 | 0.0183 | 0.0344 | 0.0116 | 0.0117 | -0.0306 | 0.103 | 0.0094 | 0.0074 | -0.0059 | 0.0048 | 0.0913 | -0.064 | 0.0722 | 0.0118 | -0.0013 | -0.0029 | -0.0002
